# Values of other authors in patent US10332616B2, “Movable type method applied to protein-ligand binding” (University of Florida Research Foundation, Inc., priority 2013, dated 2019).
# Settings: experimental solvation free energy, neutral compounds test set
row,SMILES,Exp. ΔGsolv
1,Oc1ccccc1 [Compound 0053phe],-6.62 kcal/mol
2,Cc1ccccc1O [Compound 0055ocr],-5.87 kcal/mol
3,Cc1cccc(O)c1 [Compound 0056mcr],-5.49 kcal/mol
4,CCCCCCCO [Compound 0058hep],-4.24 kcal/mol
5,CCOCC [Compound 0063die],-1.76 kcal/mol
6,O=Cc1ccccc1 [Compound 0074ben],-4.02 kcal/mol
7,CCCCCC(=O)O [Compound 0090hex],-6.21 kcal/mol
8,CCCCC(=O)OC [Compound 0098met],-2.57 kcal/mol
9,CCN [Compound 0103eth],-4.5 kcal/mol
10,CNC [Compound 0104dim],-4.29 kcal/mol

# Results, then the compound that gave them:
row,Exp. ΔGsolv,SMILES
1,-5.01 kcal/mol,CCO [Compound 0045eth]
2,-9.3 kcal/mol,OCCO [Compound 0046eth]
3,-4.83 kcal/mol,CCCO [Compound 0047pro]
4,-1.76 kcal/mol,CC(C)O [Compound 0048pro]
5,-5.49 kcal/mol,OC1CCCC1 [Compound 0051cyc]
6,-4.47 kcal/mol,CCCCCO [Compound 0052pen]
7,-4.36 kcal/mol,CCCCCCO [Compound 0054hex]
8,-1.92 kcal/mol,COC [Compound 0060dim]
9,-3.47 kcal/mol,C1CCOC1 [Compound 0061tet]
10,-5.05 kcal/mol,C1COCCO1 [Compound 0062dio]
11,-1.66 kcal/mol,CCCOC [Compound 0064met]
12,-2.01 kcal/mol,COC(C)C [Compound 0065met]
13,-2.21 kcal/mol,COC(C)(C)C [Compound 0067but]
14,-2.45 kcal/mol,COc1ccccc1 [Compound 0068ani]
15,-3.18 kcal/mol,CCCC=O [Compound 0072but]
16,-3.03 kcal/mol,CCCCC=O [Compound 0073pen]
17,-6.7 kcal/mol,CC(=O)O [Compound 0086eth]
18,-6.47 kcal/mol,CCC(=O)O [Compound 0087pro]

row,Exp. ΔGsolv,SMILES
1,-6.36 kcal/mol,CCCC(=O)O [Compound 0088but]
2,-6.16 kcal/mol,CCCCC(=O)O [Compound 0089pen]
3,-2.78 kcal/mol,COC=O [Compound 0091met]
4,-2.65 kcal/mol,CCOC=O [Compound 0092ethb]
5,-3.32 kcal/mol,COC(C)=O [Compound 0093met]
6,-2.93 kcal/mol,CCC(=O)OC [Compound 0094met]
7,-3.1 kcal/mol,CCOC(C)=O [Compound 0095eth]
8,-2.83 kcal/mol,CCCC(=O)OC [Compound 0096met]
9,-2.86 kcal/mol,CCCOC(C)=O [Compound 0097pro]
10,-5.56 kcal/mol,C1CNC1 [Compound 0105aze]
11,-3.23 kcal/mol,CN(C)C [Compound 0107tri]
12,-5.48 kcal/mol,C1CCNC1 [Compound 0108pyr]
13,-7.4 kcal/mol,C1CNCCN1 [Compound 0109pip]
14,-4.29 kcal/mol,CCCCN [Compound 0110but]
15,-7.77 kcal/mol,CN1CCNCC1 [Compound 0112Nme]
16,-4.1 kcal/mol,CCCCCN [Compound 0113pen]
17,-7.58 kcal/mol,CN1CCN(C)CC1 [Compound 0114NNd]
18,-3.66 kcal/mol,CCCNCCC [Compound 0115dip]

# Same assay, conditions: experimental solvation free energy; test set with 372 neutral compounds
row,SMILES,Exp. ΔGsolv
1,C [Compound 0001met],2 kcal/mol
2,CCC [Compound 0003pro],1.96 kcal/mol
3,CCCC [Compound 0004nbu],2.08 kcal/mol
4,CCCCCC [Compound 0006nhe],2.49 kcal/mol
5,CCCCCCC [Compound 0007nhe],2.62 kcal/mol
6,CCCCCCCC [Compound 0008noc],2.89 kcal/mol
7,CC(C)C [Compound 0010met],2.32 kcal/mol
8,CC(C)(C)C [Compound 0011dim],2.5 kcal/mol
9,CCCC(C)C [Compound 0012met],2.52 kcal/mol
10,CC(C)CC(C)C [Compound 0013dim],2.88 kcal/mol
11,C1CC1 [Compound 0016cyc],0.75 kcal/mol
12,C1CCCC1 [Compound 0017cyc],1.2 kcal/mol
13,C1CCCCC1 [Compound 0018cyc],1.23 kcal/mol
14,CC1CCCCC1 [Compound 0019met],1.71 kcal/mol
15,C[C@@H]1CCCC[C@@H]1C [Compound 0020cis],1.58 kcal/mol
16,C=CC=C [Compound 0023str],0.61 kcal/mol
17,Cc1ccccc1 [Compound 0036tol],-0.89 kcal/mol
18,CCc1ccccc1 [Compound 0037eth],-0.8 kcal/mol
19,Cc1ccccc1C [Compound 0038oxy],-0.9 kcal/mol
20,Cc1cccc(C)c1 [Compound 0039mxy],-0.84 kcal/mol
21,Cc1ccc(C)cc1 [Compound 0040pxy],-0.81 kcal/mol
22,c1ccc2ccccc2c1 [Compound 0041nap],-2.39 kcal/mol
23,c1ccc2cc3ccccc3cc2c1 [Compound 0042ant],-4.23 kcal/mol
24,CC(C)=O [Compound 0075pro],-3.85 kcal/mol
25,CCC(C)=O [Compound 0076but],-3.64 kcal/mol
26,CC(=O)C(C)(C)C [Compound 0081dim],-2.89 kcal/mol
27,CCCC(=O)CCC [Compound 0083hep],-2.93 kcal/mol
28,CC(=O)c1ccccc1 [Compound 0084met],-4.58 kcal/mol
29,c1ccncc1 [Compound 0116pyr],-4.7 kcal/mol

# Continued, values first:
row,Exp. ΔGsolv,SMILES
1,1.27 kcal/mol,C=C [Compound 0021eth]
2,1.27 kcal/mol,C=CC [Compound 0022pro]
3,1.16 kcal/mol,C=C(C)C [Compound 0024met]
4,1.38 kcal/mol,C=CCC [Compound 0025buta]
5,0.56 kcal/mol,C1=CCCC1 [Compound 0026cyc]
6,1.66 kcal/mol,C=CCCC [Compound 0027pen]
7,1.34 kcal/mol,C/C=C/CC [Compound 0028Epe]
8,1.68 kcal/mol,C=CCCCC [Compound 0029hex]
9,-0.01 kcal/mol,C#C [Compound 0030eth]
10,-0.31 kcal/mol,C#CC [Compound 0031pro]
11,-0.16 kcal/mol,C#CCC [Compound 0032but]
12,0.29 kcal/mol,C#CCCCC [Compound 0034hex]
13,-0.87 kcal/mol,c1ccccc1 [Compound 0035ben]
14,-4.68 kcal/mol,O=C1CCCC1 [Compound 0077cyc]
15,-3.53 kcal/mol,CCCC(C)=O [Compound 0078pen]
16,-3.41 kcal/mol,CCC(=O)CC [Compound 0079pen]
17,-3.29 kcal/mol,CCCCC(C)=O [Compound 0080hex]
18,-5.57 kcal/mol,Cc1cnccn1 [Compound 0117met]
